From ChEMBL document CHEMBL1151357, “Inhibition of Plant Growth by Phenethylamines and Tetrahydroisoquinolines” (1981)
Calls of active or inactive are those of the source. The calls are words filed in the database; no cut-off is given here.

Tests used:
Phaseolus vulgaris [1] = assay: Growth inhibition of pinto bean plants assessed as inhibition of second inter node elongation at 50 ug after 4 days relative to control; assay type: functional
Phaseolus vulgaris [2] = assay: Growth inhibition of pinto bean plants assessed as inhibition of second inter node elongation at 150 ug after 4 days relative to control; assay type: functional
Phaseolus vulgaris [3] = assay: Growth promoting activity in pinto bean plants at =>150 ug after 4 days; assay type: functional, organism-based
Phaseolus vulgaris [4] = assay: Phytotoxicity against pinto bean plants assessed as induction of necrosis at 50 ug after 4 days; assay type: functional, organism-based
Phaseolus vulgaris [5] = assay: Phytotoxicity against pinto bean plants assessed as induction of necrosis at 150 ug after 4 days; assay type: functional, organism-based
Sorghum bicolor = assay: Growth inhibition of Rio sorghum seedlings assessed as shoot growth from seed coat to tip of second leaf at 1 mg/ml after 4 days; assay type: functional

| SMILES | inhibition (INH) (Phaseolus vulgaris [1]) | inhibition (INH) (Phaseolus vulgaris [2]) | Activity (Phaseolus vulgaris [3]) | Activity (Phaseolus vulgaris [4]) | Activity (Phaseolus vulgaris [5]) | Activity (Sorghum bicolor) |
| --- | --- | --- | --- | --- | --- | --- |
| COc1c(OC(=O)c2ccccc2)c(OC(=O)c2ccccc2)cc2c1C(C)NCC2.Cl (stereo unspecified) | 26% | 26% | – | – | – | – |
| CC1(C(=O)O)NCCc2cc(O)c(O)cc21 (stereo unspecified) | 51% | 0% | Active | – | – | – |
| COc1cc([C@@H](O)[C@H](C)N)cc(OC)c1OC.Cl | 26% | 26% | – | – | – | – |
| COc1cc2c(cc1O)CCN[C@H]2C.Cl [SALSOLINE HYDROCHLORIDE] | 26% | 51% | – | – | – | – |
| O=C(O)C1NCCc2cc(O)c(O)cc21 (stereo unspecified) | 26% | 26% | Active | – | – | – |
| C[N+](C)(C)CCc1ccc(O)cc1.[I-] [CANDICINE IODIDE] | 76% | 76% | – | Active | Active | 33.22 mm |
| O=C1CCC2(C(=O)O)c3cc(O)c(O)cc3CCN12 (stereo unspecified) | 26% | 26% | Active | – | – | – |
| COc1cc([C@@H](O)[C@H](C)N)cc(O)c1OC.O=C(O)C(=O)O | 0% | 26% | – | – | Active | – |
| COc1cc2c(c(OC)c1OC)C(O)CNC2 (stereo unspecified) | 0% | 0% | – | – | – | – |
| COc1cc([C@@H](O)[C@H](C)N)cc(OC)c1OC | – | – | – | – | Active | – |
| Cl.NCC(O)c1cccc(O)c1 (stereo unspecified) [NORPHENYLEPHRINE HYDROCHLORIDE] | 26% | – | – | – | – | – |
| COc1cc2c(c(O)c1OC)[C@H](C)[N+](C)(C)CC2.[I-] | 0% | 51% | – | Active | – | – |
| COc1cc2c(c(OC)c1OC)C(C)NCC2.Cl (racemic) | 26% | 51% | – | – | – | – |
| COc1cc2c(c(OC)c1OC)CNCC2.Cl [ANHALININE HYDROCHLORIDE] | 0% | 100% | – | – | – | – |
| COc1cc(CCN)cc(O)c1OC.Cl | 76% | 76% | – | Active | Active | – |
| COc1cc([C@@H](O)[C@H](C)N)cc(OC)c1OC.O=C(O)C(O)C(O)C(=O)O | 26% | 0% | – | – | – | – |

| SMILES | inhibition (INH) (Phaseolus vulgaris [1]) | inhibition (INH) (Phaseolus vulgaris [2]) | Activity (Phaseolus vulgaris [3]) | Activity (Phaseolus vulgaris [4]) | Activity (Phaseolus vulgaris [5]) | Activity (Sorghum bicolor) |
| --- | --- | --- | --- | --- | --- | --- |
| COc1ccc2c(c1OC)C(C)N(C)CC2.Cl (racemic) | 26% | 100% | – | – | Active | – |
| Cl.NCCc1cc(O)c(O)cc1O [OXIDOPAMINE HYDROCHLORIDE] | 26% | 26% | – | – | – | – |
| COC(=O)c1cccn1CCc1cc(OC)c(OC)c(OC)c1 [PEYONINE METHYL ESTER] | 0% | – | – | – | – | – |
| Cl.NCCc1ccc(O)c(O)c1 [DOPAMINE HYDROCHLORIDE] | 26% | 0% | – | – | – | 40.44 mm |
| COc1cc(CCn2cccc2)cc(OC)c1OC [DECARBOXYPEYONINE] | 51% | 26% | – | – | – | – |
| COc1cc2c(c(O)c1OC)[C@H](C)N(C)CC2.Cl [PELLOTINE HYDROCHLORIDE] | 26% | 0% | – | – | – | – |
| COc1cc2c(cc1OC)[C@H](C)N(C)CC2.Cl [CARNEGINE HYDROCHLORIDE] | 100% | 100% | – | Active | – | – |
| COc1cc(CCn2cccc2C(=O)O)cc(OC)c1OC [PEYONINE] | 0% | – | – | – | – | – |
| COc1cc([C@@H](O)[C@H](C)N)cc(OC)c1OC.O=C(O)C(=O)O | 26% | 0% | – | – | – | – |
| COc1cc(CCN)cc(OC(=O)c2ccccc2)c1OC.Cl | 51% | 0% | – | – | – | – |
| COc1cc(CC[N+](C)(C)C)cc(OC)c1OC.[I-] [TRICHOCERINE METHYL IODIDE] | 76% | 76% | – | Active | Active | 36.22 mm |
| CI.COc1cc2c(c(OC)c1OC)CNCC2 [ANHALININE METHYLIODIDE] | 100% | 100% | – | – | – | – |
| COc1cc2c(c(OC)c1OC)CNCC2 | – | – | – | Active | Active | – |
| CN1CCc2cc3c(c(O)c2C1)OCO3.Cl | 0% | 0% | Active | – | – | – |
| COc1cc2c(c(OC)c1OC)[C@H](C)[N+](C)(C)CC2.[I-] | 26% | 51% | – | Active | – | – |
